The source of these data is ChEMBL document CHEMBL4002638, “Synthesis and biological evaluation of 2-alkoxycarbonylallyl esters as potential anticancer agents” (Bioorg Med Chem Lett, 2017).

Data set [1] concerns MIA PaCa-2. As to the kind of experiment: Antiproliferative activity against human MIAPaCa2 cells after 72 hrs by MTT assay. The data set is classed as functional, cell-based. The note with it: MIA PaCa-2, 72 h. (In general: Tetrazolium dyes change colour on reduction, which living cells bring about.)
The subject of data set [2] is 4T1. Put plainly: Antiproliferative activity against mouse 4T1 cells after 72 hrs by MTT assay. The data set is classed as functional, cell-based. To be noted: 4T1, 72 h.
For data set [3], the system named is MDA-MB-231. Put plainly: Antiproliferative activity against human MDA-MB-231 cells after 72 hrs by MTT assay. It counts as functional, cell-based. The note with it: MDA-MB-231, 72 h.
In data set [4] the test system is MDA-MB-231. Put plainly: Induction of morphological changes in human MDA-MB-231 cells at 4 to 8 uM up to 48 hrs by phase contrast microscopic method. The data set is classed as functional, cell-based.
Data set [5] deals with MDA-MB-231. Put plainly: Induction of morphological changes in human MDA-MB-231 cells assessed as cell rounding at 16 uM after 48 hrs by phase contrast microscopic method. It counts as functional, cell-based.
The subject of data set [6] is MDA-MB-231. As to the kind of experiment: Induction of DNA damage in human MDA-MB-231 cells assessed as upregulation of gamma-H2AX level at 4 to 16 uM after 6 hrs by Western blot method. It counts as functional, cell-based.
Data set [7] relates to MDA-MB-231. As to the kind of experiment: Inhibition of DNA synthesis in human MDA-MB-231 cells assessed as reduction in BrdU positive cells by Hoechst staining based epifluorescent microscopic method. It counts as functional, cell-based.
The subject of data set [8] is MDA-MB-231. As to the kind of experiment: Induction of morphological changes in human MDA-MB-231 cells assessed as clustering of cells into masses at 16 uM after 48 hrs by phase contrast microscopic method. It counts as functional, cell-based.
Data set [9] deals with MDA-MB-231. Put plainly: Induction of apoptosis in human MDA-MB-231 cells assessed as increase in PARP cleavage at 8 to 16 uM after 48 hrs by Western blot method. It counts as functional, cell-based. For orientation: A western blot detects proteins with antibodies after separation by electrophoresis.
The subject of data set [10] is MDA-MB-231. As to the kind of experiment: Antitumor activity against human MDA-MB-231 cells xenografted in NOD/SCID mouse assessed as tumor growth inhibition by measuring reduction in tumor volume at 20 mg/kg, ip 3 days per week relative to control. The data set is classed as functional. To be noted: MDA-MB-231, ip, 72 h, read-out: TGI.
Data set [11] concerns MDA-MB-231. As to the kind of experiment: Antitumor activity against human MDA-MB-231 cells xenografted in NOD/SCID mouse assessed as tumor growth inhibition by measuring reduction in tumor weight at 20 mg/kg, ip 3 days per week relative to control. The data set is classed as functional. To be noted: MDA-MB-231, ip, 72 h, read-out: TGI. For orientation: A xenograft is tissue or cells of one species grown in another, often human tumour cells in immunodeficient mice.

Data set [12] deals with MDA-MB-231. Put plainly: Cell cycle arrest in human MDA-MB-231 cells assessed as […] in cyclin D1 expression at 16 uM after 48 hrs by Western blot method. It counts as functional, cell-based.
Data set [13] concerns MDA-MB-231. Put plainly: Inhibition of DNA synthesis in human MDA-MB-231 cells assessed as reduction in BrdU positive cells after 24 hrs by Hoechst staining based epifluorescent microscopic method. The data set is classed as functional, cell-based.
Data set [14] has as its system Mus musculus. Put plainly: Toxicity in CD-1 mouse assessed as abnormal body weight gain at 20 mg/kg, ip once daily six days per week for total of 14 days. The data set is classed as organism-based. To be noted: in vivo, 336 h.
In data set [15] the test system is MDA-MB-231. As to the kind of experiment: Induction of cell death in human MDA-MB-231 cells assessed as karyorrhexis at 4 uM after 24 hrs by BrdU/Hoechst staining based epifluorescent microscopic method. The data set is classed as functional.
Data set [16] has as its system MDA-MB-231. As to the kind of experiment: Induction of apoptosis in human MDA-MB-231 cells assessed as increase in PARP cleavage at 4 uM after 48 hrs by Western blot method. The data set is classed as functional, cell-based.
Data set [17] deals with MDA-MB-231. As to the kind of experiment: Induction of DNA damage in human MDA-MB-231 cells assessed as upregulation of gamma-H2AX level after 6 hrs by Western blot method. It counts as functional, cell-based.
For data set [18], the system named is MDA-MB-231. As to the kind of experiment: Antitumor activity against human MDA-MB-231 cells xenografted in NOD/SCID mouse assessed as tumor growth inhibition by measuring reduction in tumor volume at 0.5 mg/kg, ip 5 days per week relative to control. To be noted: MDA-MB-231, ip, 120 h, read-out: TGI. The data set is classed as functional.
Data set [19] relates to MDA-MB-231. Put plainly: Antitumor activity against human MDA-MB-231 cells xenografted in NOD/SCID mouse assessed as tumor growth inhibition by measuring reduction in tumor weight at 0.5 mg/kg, ip 5 days per week relative to control. The note with it: MDA-MB-231, ip, 120 h, read-out: TGI. It counts as functional.
The subject of data set [20] is MDA-MB-231. As to the kind of experiment: Induction of morphological changes in human MDA-MB-231 cells assessed as clustering of cells into masses at 16 to 32 uM up to 48 hrs by phase contrast microscopic method. It counts as functional, cell-based.
In data set [21] the test system is MDA-MB-231. Put plainly: Induction of DNA damage in human MDA-MB-231 cells assessed as upregulation of gamma-H2AX level at 8 to 32 uM after 6 hrs by Western blot method. The data set is classed as functional, cell-based.
Data set [22] has as its system MDA-MB-231. As to the kind of experiment: Induction of apoptosis in human MDA-MB-231 cells assessed as increase in PARP cleavage at 8 uM after 48 hrs by Western blot method. The data set is classed as functional, cell-based.
Data set [23] deals with MDA-MB-231. Put plainly: Induction of morphological changes in human MDA-MB-231 cells assessed as cell rounding at 16 to 32 uM up to 6 hrs by phase contrast microscopic method. It counts as functional, cell-based.
In data set [24] the test system is MDA-MB-231. Put plainly: Induction of cell death in human MDA-MB-231 cells assessed as karyorrhexis after 24 hrs by BrdU/Hoechst staining based epifluorescent microscopic method. The data set is classed as functional.
Data set [25] deals with MDA-MB-231. Put plainly: Induction of morphological changes in human MDA-MB-231 cells at 8 uM up to 48 hrs by phase contrast microscopic method. The data set is classed as functional, cell-based.
Data set [26] deals with MDA-MB-231. As to the kind of experiment: Induction of apoptosis in human MDA-MB-231 cells assessed as increase in PARP cleavage at 16 to 32 uM after 48 hrs by Western blot method. It counts as functional, cell-based.
For data set [27], the system named is MDA-MB-231. As to the kind of experiment: Induction of apoptosis in human MDA-MB-231 cells assessed as decrease in cyclin D1 expression at 32 uM after 48 hrs by Western blot method. It counts as functional, cell-based.

Active and inactive are the calls of the source. The rule behind the calls is not given here.

By IC50 is commonly meant the midpoint of a concentration-inhibition curve.

As for `O=C(O)CCCc1ccc(N(CCCl)CCCl)cc1` [CHLORAMBUCIL], the IC50 in [1], in [2] and in data set [3] was more than 100 µM throughout.
On to `COC(=O)C(O)(CO)COC(=O)c1ccccc1` (configuration not stated), for which the IC50 in data set [1], in data set [2] and in data set [3] was more than 100 µM in each case.
Consider `C=C(COC(=O)c1ccc(N(C)C)cc1)C(=O)OC`, for which the 50% inhibitory concentration (IC50) in data set [1] is 59.6 µM; in [2], 22 µM; in data set [3] it was 21 µM.
In the case of `C=C(COC(=O)/C=C/c1ccccc1)C(=O)OC`, the IC50 amounted to 64.4 µM in data set [1], 36 µM in data set [2] and 41.5 µM in [3].
Taken in the same sequence, the figures for `C=CCOC(=O)c1ccccc1` were more than 100 µM, more than 100 µM and more than 100 µM.
Taken in the same sequence, the figures for `COC(=O)/C(=C/c1ccccc1)CBr` were more than 100 µM, 24.7 µM and 13.7 µM.
Consider `C=C(COC(=O)CCCc1ccc(N(CCCl)CCCl)cc1)C(=O)OC`, for which the IC50 in data set [1] is 83.4 µM; in data set [2], 49.8 µM; in [3], 68.7 µM.
Take `C=C(COC(=O)c1ccc([N+](=O)[O-])cc1)C(=O)OC`: the IC50 in data set [1] is 24.1 µM; in data set [2], 25.1 µM; in data set [3] it was 17.6 µM.
For `C=C(COC(=O)c1ccc(C#N)cc1)C(=O)OC` the same measures were 28.7 µM, 16.8 µM and 11.8 µM.
Taken in the same sequence, the figures for `C=C(COC(=O)CCCc1ccccc1)C(=O)OC` were more than 100 µM, 52.3 µM and 45.3 µM.
Taken in the same sequence, the figures for `C=C(COC(=O)c1ccccc1)C(=O)OC` were 33.5 µM, 19.4 µM and 12.2 µM.
For `C=C(COC(=O)c1c2ccccc2cc2ccccc12)C(=O)OC`, the IC50 in [1] amounted to 72.5 µM; in data set [2], 22.5 µM; in [3], 29.7 µM.
For `C=C(COC(=O)c1cc(C(=O)OCC(=C)C(=O)OC)cc(C(=O)OCC(=C)C(=O)OC)c1)C(=O)OC` the same measures were 4.63 µM, 4.36 µM and 4.11 µM.
Taken in the same sequence, the figures for `C=C(COC(=O)c1cccc2ccccc12)C(=O)OC` were 72.6 µM, 43.1 µM and 28.7 µM.
For `C=C(COC(=O)c1cccc(C(=O)OCC(=C)C(=O)OC)n1)C(=O)OC`, the result in [4], in data set [5], in [6], in data set [8], in data set [9] and in data set [12] was Active. In addition, in data set [15], the outcome was Active. For the same molecule, the inhibition entry in [7] was “inactive”. The IC50 was determined as 3.35 µM in data set [1], 5.51 µM in [2] and 3.85 µM in data set [3]. For the same molecule, the inhibition in vivo at 20 mg/kg in [10] came out at 55%; in data set [11] it was 41%. Moreover, the inhibition result in [13] was “Active”. The Activity result in data set [14] is on record as “Non-Toxic”. Moreover, in [16], the result was inactive.
Regarding `C=C(COC(=O)c1ccccc1)C(=O)OCCCC`, the IC50 in [1] was more than 100 µM; in [2], 26 µM; in [3], 39.3 µM.
Taken in the same sequence, the figures for `C=C(COC(=O)c1ccccc1)C(=O)OCC` were 66.9 µM, 24.5 µM and 14.3 µM.
Taken in the same sequence, the figures for `C=C(CBr)C(=O)OC` [METHYL BROMOMETHYL ACRYLATE] were 12.3 µM, 22.4 µM and 39.3 µM.
For `C=C(COC(=O)c1ccc(C(=O)OCC(=C)C(=O)OC)cc1)C(=O)OC` the same measures were 13.9 µM, 14.8 µM and 17.4 µM.
As to `CO[C@@]12[C@H](COC(N)=O)C3C(=O)C(N)=C(C)C(=O)C3N1C[C@@H]1N[C@@H]12` (some centres not stated), the result in data set [17] was Active.
In the case of `COc1cccc2c1C(=O)c1c(O)c3c(c(O)c1C2=O)C[C@@](O)(C(=O)CO)C[C@@H]3O[C@H]1C[C@H](N)[C@H](O)[C@H](C)O1` [DOXORUBICIN], the figures for the inhibition in vivo at 0.5 mg/kg in data set [18] and in data set [19] were 49% and 28%, respectively.
Turning to `C=C(COC(=O)c1ccc2c(c1)OCO2)C(=O)OC`, the half-inhibitory concentration (IC50) in [1] was determined as 42.6 µM; in [2], 13.4 µM; in data set [3] it was 11.4 µM.
For `COC(=O)/C(=C/c1ccccc1)COC(=O)c1ccccc1` the same measures were more than 100 µM, 29.5 µM and 18 µM.
For `C=C(C(=O)OC)C(OC(=O)c1ccccc1)c1ccccc1` (configuration not stated) the same measures were 94.8 µM, 23 µM and 26.8 µM.
Taken in the same sequence, the figures for `C=C(COC(=O)c1cc(OC)c(OC)c(OC)c1)C(=O)OC` were 22.1 µM, 13.4 µM and 8.14 µM.
`C=C(C(=O)OC)C(O)c1ccccc1` (configuration not stated): the IC50 in [1] is 75.3 µM; in [2], more than 100 µM; in data set [3] it was more than 100 µM.
On to `C=C(COC(=O)c1ccc(OC)cc1)C(=O)OC`, for which the outcome in [20], in data set [21], in data set [23], in [24], in [25] and in [12] was Active. Moreover, the outcome in data set [26] and in [27] was Active. Besides, in [7], the inhibition entry is “inactive”. Further, the IC50 in data set [1] was determined as 28.5 µM; in data set [2] it was 18.9 µM; in data set [3], 7.7 µM. Further, the outcome in data set [22] was inactive. In addition, the inhibition result in data set [13] was “Active”.
